Results as given in US12551492B2, “Enthesis healing” (UNIVERSITY OF UTAH RESEARCH FOUNDATION, priority 2020, dated 2026).
Where two headings read alike, the source gives them in different places.

Tests used:
[1] = cited from earlier work
rotator cuff repair = conditions: mouse and rat models; cited from earlier work
rotator cuff enthesis = assay: Mouse rotator cuff repair, histological analyses four weeks post-operatively; format: in vivo, male wild type mice
Text: (§1) Twenty-nine male wild type mice were randomly divided into three study groups. Group 1 (Control) consisted of unoperated mice which provided intact “control” shoulders with normal rotator cuff tendons. Group 2 (Repair Only) was a surgical repair group injected with the drug carrier used in Group 3. Group 3 (Repair+DES) was a surgical repair group injected with diethylstilbestrol (DES). Twenty-three mice were sacrificed four weeks post-operatively and used for histological analyses including scanning electron & light microscopy. The six remaining mice (n=3 Repair Only and n=3 Repair+DES) were sacrificed at 2 weeks for RNA expression analysis of various chondrogenic, angiogenic, osteogenic, tendon maturation/modulation, and hormonal genes.

[2] = tested on: chondrogenic, angiogenic, osteogenic, tendon maturation/modulation, and hormonal genes; assay: Mouse rotator cuff repair, RNA expression analysis at 2 weeks; format: in vivo, male wild type mice; conditions: Repair+DES vs Repair Only, p<0.02
Text: as §1

[3] = Multi-payor national database study: infection after rotator cuff repair; format: in vivo; conditions: patients receiving testosterone replacement vs non-testosterone replacement patients, adjusted
Experimental: A study within a multi-payor large national database with over 160 million individuals was conducted including 292,666 patients who underwent RCR and an equal number of controls matched for age, sex, year of surgery, and years within the database.
The higher testosterone levels found in males as compared to females increase the presence of Cutibacterium acnes on the skin.

[4] = Table 2, available forms of testosterone
[5] = Table 1, available forms of estrogen

Molecule | Half-life [1, 4] [days] | Half-life [1, 5] | also measured
CCC(=O)O[C@H]1CC[C@H]2[C@@H]3CCC4=CC(=O)CC[C@]4(C)[C@H]3CC[C@]12C [Testosterone propionate] | 2 |  | 
CC/C(=C(\c1ccccc1)c1ccc(OCCN(C)C)cc1)c1ccccc1 [Tamoxifen (SERM), Tamoxifen] |  | 5 to 7 days | 
TGF-beta1: transforming growth factor beta1 |  |  | histologic or biomechanical characteristics after rotator cuff repair (rotator cuff repair): positively influence histologic or biomechanical characteristics
CCCCC(=O)O[C@H]1CC[C@H]2[C@@H]3CCc4cc(O)ccc4[C@H]3CC[C@]12C [Estradiol valerate] |  | 4 to 5 days | 
C[C@](O)(COc1ccc(C#N)cc1)C(=O)Nc1ccc(C#N)c(C(F)(F)F)c1 [Enobosarm] | 0.0694 |  | 
CCC(=O)Oc1ccc2c(c1)CC[C@@H]1[C@@H]2CC[C@]2(C)[C@@H](OC(=O)CC)CC[C@@H]12 [Estradiol dipropionate] |  | >5 days | 
CCN(CC)CCOc1ccc(C(=C(Cl)c2ccccc2)c2ccccc2)cc1 [Clomiphene (SERM), Clomiphene] |  | 5 days | 
CC/C(=C(/CC)c1ccc(O)cc1)c1ccc(O)cc1 [DES, diethylstilbestrol] |  |  | areas of calcified and uncalcified fibrocartilage (rotator cuff enthesis; Repair Only vs Control and Repair+DES, p<0.03): significantly greater in the Repair Only group; bone formation within the humeral head (rotator cuff enthesis; Repair+DES vs Repair Only and Control (intact tendon), p<0.001): increase of bone formation; osteogenic, angiogenic, and tendon modulation gene expression [2]: further increased
CCCCCCC(=O)O[C@H]1CC[C@H]2[C@@H]3CCc4cc(O)ccc4[C@H]3CC[C@]12C [Estradiol enanthate] |  | 5 to 8 days | 
CCCCCCCCCCC(=O)O[C@H]1CC[C@H]2[C@@H]3CCc4cc(O)ccc4[C@H]3CC[C@]12C [Estradiol undecylate] |  | 1-2 mon | 
N#Cc1ccc(N2CCC[C@@H]2[C@@H](O)C(F)(F)F)cc1C(F)(F)F [Ligandrol] | 1 to 1.5 |  | 
CCCCCCC(=O)O[C@H]1CC[C@H]2[C@@H]3CCC4=CC(=O)CC[C@]4(C)[C@H]3CC[C@]12C [Testosterone enanthate] | 4.5 |  | 
CCCCCCCCCCC(=O)O[C@H]1CC[C@H]2[C@@H]3CCC4=CC(=O)CC[C@]4(C)[C@H]3CC[C@]12C [Testosterone undecanoate (PO), Testosterone undecanoate] | 0.0694 |  | Half-life ([1]; Table 2, available forms of testosterone, listed as Testosterone undecanoate (IM)): 34 days
FGF-2: fibroblast growth factor 2 |  |  | histologic or biomechanical characteristics after rotator cuff repair (rotator cuff repair): positively influence histologic or biomechanical characteristics
C[C@]12CC[C@H]3[C@@H](CCC4=CC(=O)CC[C@@]43C)[C@@H]1CC[C@@H]2OC(=O)CCC1CCCC1 [Testosterone cypionate] | 8 |  | 
C[C@]12CC[C@H]3[C@@H](CCC4=CC(=O)CC[C@@]43C)[C@@H]1CC[C@@H]2O [testosterone] |  |  | increase in risk of having an infection after an RCR [3]: 75%
C[C@]12CC[C@@H]3c4ccc(O)cc4CC[C@H]3[C@@H]1CC[C@@H]2OC(=O)CCC1CCCC1 [Estradiol cypionate] |  | 8 to 10 days | 
C[C@]12CC[C@@H]3c4ccc(OC(=O)c5ccccc5)cc4CC[C@H]3[C@@H]1CC[C@@H]2O [Estradiol benzoate] |  | 2 to 5 days | 
PDGF-BB: platelet derived growth factor-BB (protein, UniProt P01127 82-190, looked up) Platelet-derived growth …: SLGSLTIAEPAMIAECKTRTEVFEISRRLIDRTNANFLVWPPCVEVQRCSGCCNNRNVQCRPTQVQLRPVQVRKIEIVRKKPIFKKATVTLEDHLACKCETVAAARPVT |  |  | histologic or biomechanical characteristics after rotator cuff repair (rotator cuff repair): positively influence histologic or biomechanical characteristics
